Like-named read-outs stand apart in the source and are kept apart here. Blank lines part the entries; values can stand above or below the molecule they belong to.
What was measured:
orexin-1 = orexin-1 (Homo sapiens (Human), UniProt O43613); test: Intracellular calcium measurement (FLIPR), CHO cells expressing human orexin-1 receptor, 3 nM orexin-A; assay type: cell-based; settings: read-out: IC50 OX1
Outline: (§1)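 Fluo-4 AM-loaded CHO cells; antagonist preincubation 120 min, then 3 nM orexin-A (final) in HBSS/0.1% BSA/20 mM HEPES. FLIPR read at 1 s intervals; peak height vs. agonist-plus-vehicle control → IC50.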

human orexin-2 receptor = human orexin-2 receptor (Homo sapiens (Human), UniProt O43614); test: Intracellular calcium measurement (FLIPR), CHO cells expressing human orexin-2 receptor, 3 nM orexin-A; assay type: cell-based; settings: read-out: IC50 OX2
Outline: as §1

[1] = Measurement of brain and systemic concentration after oral administration; assay type: in vivo; settings: rat, 3 h after oral administration (100 mg/kg), n=3, male wistar rats;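 for concentration in plasma [P]: unit ng/mL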
Procedure: Measurement of Brain and Systemic Concentration after Oral Administration:
In order to assess brain penetration, the concentration of the compound is measured in plasma ([P]), and brain ([B]), sampled 3 h (or at different time points) following oral administration (e.g. 100 mg/kg) to male wistar rats. The compounds are formulated e.g. in 100% PEG 400. Samples are collected in the same animal at the same time point (+/−5 min). Blood is sampled from the vena cava caudalis into containers with EDTA as anticoagulant and centrifuged to yield plasma. Brain is sampled after cardiac perfusion of 10 mL NaCl 0.9% and homogenized into one volume of cold phosphate buffer (pH 7.4). All samples are extracted with MeOH and analyzed by LC-MS/MS. Concentrations are determined with the help of calibration curves.

Wistar rats = test: Sleep effects: EEG, EMG and behavioural indices of alertness by radiotelemetry; assay type: in vivo; settings: effects analyzed over 12 hours, compared to vehicle controls
Procedure: Sleep Effects: EEG, EMG and Behavioural Indices of Alertness Recorded by Radiotelemetry In Vivo in Wistar Rats.
Electroencephalography (EEG) and Electromyography (EMG) signals were measured by telemetry using TL11M2-F20-EET miniature radiotelemetric implants (Data Science Int.) with two pairs of differential leads.
Surgical implantation was performed under general anesthesia with Ketamin/Xylazin, for cranial placement of one differential pair of EEG electrodes and one pair of EMG leads inserted in either side of the muscles of the neck. After surgery, rats recovered in a thermoregulated chamber and received analgesic treatment with subcutaneous buprenorphine twice a day for 2 d. They were then housed individually and allowed to recover for a minimum of 2 weeks. Thereafter, rats—in their home cage—were placed in a ventilated sound-attenuating box, on a 12-h light/12-h dark cycle, for acclimatization before continuous EEG/EMG recordings started. The telemetric technology that we used in this study allows accurate and stress-free acquisition of biosignals in rats placed in their familiar home cage environment, with no recording leads restricting their movements. Variables analyzed included four different stages of vigilance and sleep, spontaneous activity in the home cage and body temperature. Sleep and wake stages were evaluated using a rodent scoring software (Somnologica Science) directly processing electrical biosignals on 10 s contiguous epochs. The scoring is based on frequency estimation for EEG and amplitude discrimination for EMG and locomotor activity. Using these measurements, the software determines the probability that all components within each epoch best represent active waking (AW), quiet waking (QW), non-REM-sleep (NREM) or REM-sleep (REM). The percentage of total time spent in AW, QW, NREM- and REM-sleep was calculated per 12 h light or dark period. The latency to the onset of the first significant NREM- and REM-sleep episodes and the number and duration of those episodes were also calculated. AW, QW, NREM- and REM-sleep, home cage activity and body temperature were measured at baseline for at least one total circadian cycle (12 h-night, 12 h-day) before a test compound was administered. […] All variables were subsequently recorded for 12 h following administration of the orexin receptor antagonist.

rodents [2] = settings: conditioned reinforcer; cited from earlier work
rodents [3] = settings: cited from earlier work
humans = settings: primary insomnia; cited from earlier work
rat [4] = settings: cited from earlier work
rats = settings: cited from earlier work
rat [5] = settings: cited from earlier work; remark: listed apart in the source
[6] = tested on: amyloid precursor protein transgenic mice; settings: after acute sleep restriction, APP transgenic mice; cited from earlier work
mouse = settings: administered chronically; cited from earlier work
fasted hungry rats = fasted hungry rats exposed to food odors; cited from earlier work
rat [7] = settings: cited from earlier work; remark: listed apart in the source
[8] = CHO cells expressing human orexin-1 receptor, FLIPR, 3 nM orexin-A, geometric mean if determined several times
[9] = CHO cells expressing human orexin-2 receptor, FLIPR, 3 nM orexin-A, geometric mean if determined several times
[10] = brain, read-out: concentration in brain [B]
[11] = plasma, read-out: concentration in plasma [P]

Chain of human orexin-2 receptor (O43614 whole entry): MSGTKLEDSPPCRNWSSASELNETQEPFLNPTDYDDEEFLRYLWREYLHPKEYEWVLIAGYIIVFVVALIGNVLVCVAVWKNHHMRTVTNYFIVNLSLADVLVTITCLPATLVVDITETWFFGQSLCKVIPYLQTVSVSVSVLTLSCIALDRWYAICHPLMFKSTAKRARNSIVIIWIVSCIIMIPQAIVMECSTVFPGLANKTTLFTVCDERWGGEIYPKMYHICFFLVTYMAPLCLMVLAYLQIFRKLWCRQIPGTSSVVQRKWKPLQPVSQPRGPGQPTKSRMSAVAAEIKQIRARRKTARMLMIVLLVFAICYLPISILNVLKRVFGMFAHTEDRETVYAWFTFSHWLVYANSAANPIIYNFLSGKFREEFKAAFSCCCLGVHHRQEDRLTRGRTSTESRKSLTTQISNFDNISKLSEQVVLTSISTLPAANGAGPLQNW
Chain of orexin-1 (O43613 whole entry): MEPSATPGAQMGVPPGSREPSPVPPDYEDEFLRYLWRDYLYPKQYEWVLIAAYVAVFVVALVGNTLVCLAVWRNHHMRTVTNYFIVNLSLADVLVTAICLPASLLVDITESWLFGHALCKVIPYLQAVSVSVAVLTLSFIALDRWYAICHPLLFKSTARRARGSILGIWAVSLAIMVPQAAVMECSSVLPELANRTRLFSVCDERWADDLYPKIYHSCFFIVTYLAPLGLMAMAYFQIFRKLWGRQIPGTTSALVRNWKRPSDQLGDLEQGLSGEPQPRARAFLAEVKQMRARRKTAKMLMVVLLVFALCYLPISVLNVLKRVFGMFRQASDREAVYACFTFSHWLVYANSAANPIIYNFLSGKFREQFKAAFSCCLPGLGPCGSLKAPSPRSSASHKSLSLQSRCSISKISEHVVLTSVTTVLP

Structure (SMILES): COc1cc(C(=O)N2CCC[C@H]2c2nc(-c3ccccc3OC(F)(F)F)no2)c(-n2nccn2)cc1C [Example 154, (5-Methoxy-4-methyl-2-[1,2,3]triazol-2-yl-phenyl)-{(S)-2-[3-(2-trifluoromethoxy-phenyl)-[1,2,4]oxadiazol-5-yl]-pyrrolidin-1-yl}-methanone]
- IC50 (orexin-1; [8]): 30 nM
- IC50 (human orexin-2 receptor; [9]): 2 nM
- concentration at 3 h [1, 10]: 3250 ng/g
- concentration at 3 h [1, 11]: 2240 ng/mL
- effect on NREM sleep (Wistar rats; 100 mg/kg po): +7.3%
- effect on REM sleep (Wistar rats; 100 mg/kg po): +0.9%
- effect on active wake (Wistar rats; 100 mg/kg po): −13.9%
- effect on home cage activity (Wistar rats; 100 mg/kg po): −26.8%

Structure (SMILES): Cn1c(SCC(=O)N2CCC[C@H]2C(=O)Nc2ccccc2-c2ccccc2)nc2ccccc21 [N-Biphenyl-2-yl-1-{[(1-methyl-1H-benzimidazol-2-yl)sulfanyl]acetyl}-L-prolinamide]
- nicotine-reinstatement (rodents [2]): inhibited nicotine-reinstatement for a conditioned reinforcer
- behavioral and molecular changes induced by repeated amphetamine (rodents [3]): reduced behavioral (locomotor sensitization) and molecular (transcriptional responses) changes

Structure (SMILES): CNC(=O)[C@@H](c1ccccc1)N1CCc2cc(OC)c(OC)cc2[C@@H]1CCc1ccc(C(F)(F)F)cc1 [(2R)-2-{(1S)-6,7-dimethoxy-1-[2-(4-trifluoromethyl-phenyl)-ethyl]-3,4-dihydro-1H-isoquinolin-2-yl}-N-methyl-2-phenyl-acetamide]
- clinical efficacy (humans): showed clinical efficacy
- alertness (active wake and locomotion) (rat [4]): decrease alertness
- time spent in REM and NREM sleep (rat [4]): dose-dependently increase the time spent in both REM and NREM sleep
- cardiovascular responses to conditioned fear and novelty exposure (rats): attenuated cardiovascular responses to conditioned fear and novelty exposure
- activity in fear-potentiated startle paradigm (rat [5]): active
- brain levels of amyloid-beta and plaque deposition [6]: decreased brain levels of amyloid-beta (Aβ) as well as Aβ plaque deposition
- antidepressant-like activity (mouse): induce antidepressant-like activity
- natural activation induced by orexin A (fasted hungry rats): attenuate the natural activation induced by orexin A
- pharmacological activity in nicotine self-administration (rat [7]): displayed pharmacological activity

Structure (SMILES): Cc1ccc(-n2nccn2)c(C(=O)N2CCC[C@H]2c2cc(-c3cccc(Cl)c3C)n[nH]2)c1 [compound 534]
- IC50 (orexin-1; [8]): 410 nM
- IC50 (human orexin-2 receptor; [9]): 53 nM

Structure (SMILES): COc1cc(C(=O)N2CCC[C@H]2c2noc(-c3cccc(Cl)c3OC)n2)c(-n2nccn2)cc1C [compound 348]
- IC50 (orexin-1; [8]): 10 nM
- IC50 (human orexin-2 receptor; [9]): 1 nM

Structure (SMILES): Cc1ccc(-n2nccn2)c(C(=O)N2CCC[C@H]2c2nc(-c3cccc4c3ccn4C)no2)c1 [compound 74, {(S)-2-[3-(1-Methyl-1H-indol-4-yl)-[1,2,4]oxadiazol-5-yl]-pyrrolidin-1-yl}-(5-methyl-2-[1,2,3]triazol-2-yl-phenyl)-methanone]
- IC50 (orexin-1; [8]): 254 nM
- IC50 (human orexin-2 receptor; [9]): 6 nM

Structure (SMILES): O=C(c1ccccc1-n1nccn1)N1CCC[C@H]1c1nc(-c2ccccc2Cl)no1 [compound 243]
- IC50 (orexin-1): 2680 nM
- IC50 (human orexin-2 receptor): 312 nM

Structure (SMILES): Cc1ccccc1-c1noc([C@@H]2CCCN2C(=O)c2ccoc2)n1 [Ref 6]
- IC50 (orexin-1; [8]): > 8500 nM
- IC50 (human orexin-2 receptor; [9]): > 10000 nM

Structure (SMILES): Cc1ccc(-n2nccn2)c(C(=O)N2CCC[C@H]2c2nnc(-c3cccc(Cl)c3C)[nH]2)c1 [compound 493]
- IC50 (orexin-1; [8]): 1140 nM
- IC50 (human orexin-2 receptor): 29 nM

Structure (SMILES): Cc1ccc(-n2nccn2)c(C(=O)N2CCC[C@H]2c2nc(-c3cnn(C)c3)no2)c1 [compound 60, {(S)-2-[3-(1-Methyl-1H-pyrazol-4-yl)-[1,2,4]oxadiazol-5-yl]-pyrrolidin-1-yl}-(5-methyl-2-[1,2,3]triazol-2-yl-phenyl)-methanone]
- IC50 (orexin-1; [8]): > 1420 nM
- IC50 (human orexin-2 receptor; [9]): 419 nM

Continued, in another order:

- concentration at 3 h [1, 10]: 1640 ng/g
- concentration at 3 h [1, 11]: 2770 ng/mL
Structure (SMILES): Cc1ccc(C(=O)N2CCC[C@H]2c2nnc(-c3ccccc3OC(F)(F)F)[nH]2)c(-n2nccn2)c1 [Example 502, (4-Methyl-2-[1,2,3]triazol-2-yl-phenyl)-{(S)-2-[5-(2-trifluoromethoxy-phenyl)-4H-[1,2,4]triazol-3-yl]-pyrrolidin-1-yl}-methanone]
- effect on NREM sleep (Wistar rats; 100 mg/kg po): +24.2%
- effect on REM sleep (Wistar rats; 100 mg/kg po): +47.0%
- effect on active wake (Wistar rats; 100 mg/kg po): −19.4%
- effect on home cage activity (Wistar rats; 100 mg/kg po): −47.1%

- IC50 (orexin-1; [8]): 5 nM
- IC50 (human orexin-2 receptor; [9]): 6 nM
- concentration at 3 h [1, 10]: 1120 ng/g
- concentration at 3 h [1, 11]: 1070 ng/mL
Structure (SMILES): C[C@@]1(c2nnc(-c3ccccc3OC(F)(F)F)[nH]2)CCCN1C(=O)c1ccc(Cl)cc1-n1nccn1 [Example 544, (4-Chloro-2-[1,2,3]triazol-2-yl-phenyl)-{(S)-2-methyl-2-[5-(2-trifluoromethoxy-phenyl)-4H-[1,2,4]triazol-3-yl]-pyrrolidin-1-yl}-methanone]
- effect on NREM sleep (Wistar rats; 30 mg/kg po): +19.4%
- effect on REM sleep (Wistar rats; 30 mg/kg po): +5.6%
- effect on active wake (Wistar rats; 30 mg/kg po): −9.6%
- effect on home cage activity (Wistar rats; 30 mg/kg po): −18.5%

- IC50 (orexin-1; [8]): 13 nM
- IC50 (human orexin-2 receptor; [9]): 3 nM
- concentration at 3 h [1, 10]: 483 ng/g
- concentration at 3 h [1, 11]: 309 ng/mL
Structure (SMILES): Cc1cc(C(=O)N2CCC[C@H]2c2nc(-c3cccc(Cl)c3C)no2)c(-n2nccn2)cc1C [Example 95, {(S)-2-[3-(3-Chloro-2-methyl-phenyl)-[1,2,4]oxadiazol-5-yl]-pyrrolidin-1-yl}-(4,5-dimethyl-2-[1,2,3]triazol-2-yl-phenyl)-methanone]
- effect on NREM sleep (Wistar rats; 100 mg/kg po): +11.2%
- effect on REM sleep (Wistar rats; 100 mg/kg po): +7.8%
- effect on active wake (Wistar rats; 100 mg/kg po): −7.3%
- effect on home cage activity (Wistar rats; 100 mg/kg po): −20.3%

- IC50 (orexin-1; [8]): 22 nM
- IC50 (human orexin-2 receptor; [9]): 4 nM
- concentration at 3 h [1, 10]: 1580 ng/g
- concentration at 3 h [1, 11]: 1760 ng/mL
Structure (SMILES): COc1cc(C(=O)N2CCC[C@H]2c2noc(-c3ccccc3OC(F)(F)F)n2)c(-n2nccn2)cc1C [Example 308, (5-Methoxy-4-methyl-2-[1,2,3]triazol-2-yl-phenyl)-{(S)-2-[5-(2-trifluoromethoxy-phenyl)-[1,2,4]oxadiazol-3-yl]-pyrrolidin-1-yl}-methanone]
- effect on NREM sleep (Wistar rats; 100 mg/kg po): +14.3%
- effect on REM sleep (Wistar rats; 100 mg/kg po): +35.2%
- effect on active wake (Wistar rats; 100 mg/kg po): −24.0%
- effect on home cage activity (Wistar rats; 100 mg/kg po): −41.4%

- IC50 (orexin-1; [8]): 79 nM
- IC50 (human orexin-2 receptor; [9]): 31 nM
Structure (SMILES): Cc1ccc(C(=O)N2CCC[C@H]2c2nc(-c3ccccc3OC(F)F)no2)c(-n2nccn2)c1 [compound 187, {(S)-2-[3-(2-Difluoromethoxy-phenyl)-[1,2,4]oxadiazol-5-yl]-pyrrolidin-1-yl}-(4-methyl-2-[1,2,3]triazol-2-yl-phenyl)-methanone]

- IC50 (orexin-1; [8]): 2290 nM
- IC50 (human orexin-2 receptor; [9]): 29 nM
Structure (SMILES): Cc1ccc(-n2nccn2)c(C(=O)N2CCC[C@H]2c2nc(-c3cccnc3C)no2)c1 [compound 78, {(S)-2-[3-(2-Methyl-pyridin-3-yl)-[1,2,4]oxadiazol-5-yl]-pyrrolidin-1-yl}-(5-methyl-2-[1,2,3]triazol-2-yl-phenyl)-methanone]

- IC50 (orexin-1; [8]): 109 nM
- IC50 (human orexin-2 receptor; [9]): 80 nM
Structure (SMILES): COc1cc(C)cc(-c2nc([C@@H]3CCCN3C(=O)c3ccc(C)cc3-n3nccn3)no2)c1 [compound 412, {(S)-2-[5-(3-Methoxy-5-methyl-phenyl)-[1,2,4]oxadiazol-3-yl]-pyrrolidin-1-yl}-(4-methyl-2-[1,2,3]triazol-2-yl-phenyl)-methanone]
